Measurements from US20240156790A1, “COMPOUNDS, COMPOSITIONS, AND METHODS FOR MODULATING FERROPTOSIS AND TREATING EXCITOTOXIC DISORDERS” (THE TRUSTEES OF COLUMBIA UNIVERSITY IN THE CITY OF NEW YORK, priority 2018, published 2024).
Entries after “also recorded” stand apart in the source; their conditions may differ. Like-named read-outs stand apart in the source and are kept apart here.

How the values were obtained:
HT-1080 cells [1] = experiment: Rescue activity of Fer-1 analogs: inhibition of erastin-, IKE- or RSL3-induced death (Alamar Blue viability); format: cell-based; settings: Homo sapiens
Procedure: HT-1080 cells are cultured in DMEM containing 10% fetal bovine serum, 1% supplemented non-essential amino acids and 1% pen/strep mixture (Gibco) and maintained in a humidified environment at 37° C. with 5% CO2 in a tissue culture incubator. 1,000 HT-1080 cells are seeded per well in duplicate 384-well plates (Corning) using a BioMek FX liquid handling robot (Beckman Coulter). The next day, the medium is replaced with 36 μL of medium containing 10 μM erastin with 4 μL of medium containing a dilution series (previously prepared) of DMSO, Fer-1 (positive control) or Fer-1 analogs. […] Cells are incubated a further 6 hours and then the Alamar Blue fluorescence intensity recorded using a Victor 3 platereader (PerkinElmer)(ex/em 530/590). All experiments are performed at least twice and the background (no cells)-subtracted Alamar Blue values for each combination are averaged between replicates. The same procedure was repeated by replacing erastin (10 μM) with IKE (3 μM) or RSL3 (0.2 μM).

[2] = Microsomal stability, mouse liver microsomes (Table 1); format: in vitro ADME, Mouse: CD1; settings: for average % remaining after 120 minutes: compounds with t1/2 > 120 min, in parentheses; for half-life: liver microsomes
Procedure: Each compound (1 μM) is incubated with mouse plasma, for 4 hours at 37° C., with shaking at 100 rpm. The concentration of compound in the buffer and plasma chambers is determined using LC-MS/MS. Metabolism of each compound is predicted using Sites of Metabolism (Schrodinger Suite), which combines intrinsic reactivity analysis (Hammett-Taft) with induced fit docking against 2C9, 2D6 and 3A4. This approach identifies 90% of known metabolism sites and has a false positive rate of 17%. The in vitro metabolic stability of each compound in mouse liver microsomes is determined. Pooled mouse liver microsomes are prepared and stored at −80° C. until needed. […]

HT-1080 cells [3] = experiment: Rescue activity of selected Fer-1 analogs, dose-response in HT-1080 cells (cell titer glo); format: cell-based; settings: for potency compared, in words: 0.2 μM RSL3, 10 μM erastin; for toxicity (overall drop in viability): at 10 μM compound; for IC50: Homo sapiens, HT-1080, range 10 μM-0 μM, 48 hours
Procedure: Selected Fer-1 analogs containing a pyridine moiety (FIG. 4) were tested to examine their efficacy and overall potency in inhibiting ferroptosis. For each of these compounds, dose-response curves were generated in HT-1080 cells looking at the effectiveness of the molecules in inhibiting ferroptosis induced by either 3 μM IKE or 0.2 μM RSL3, Fer-1 was used as a positive control. For each dose-response curve, 1,000 cells/well were seeded in a 384 well plate and allowed to adhere overnight prior to treating with compound from a daughter plate. Cells were treated for 48 hours, unless otherwise noted, prior to viability being analyzed using cell titer glo (40 μL per well). All liquid handling was performed using the BioMek. All samples were prepared in triplicate, unless otherwise noted.

[4] = Microsomal Stability Assay (Examples 6 and 8); format: in vitro ADME, mouse; settings: for microsomal stability / half-life, in words: assessed over two hours
Procedure: (§1) To a 96-well polypropylene plate was added phosphate buffer (182.2 μL, pH 7.4, 100 mM) followed by addition of NADPH-regenerating system solution A (10 μL), and NADPH regenerating system solution B (2 μL) (Corning Gentest 3P NADPH regenerating system solution A (#451220) and B (#451200)). A stock solution of analog (0.8 μL. 5 mM) or fer-1 (positive control) was added and the mixture was warmed to 37° C. for 5 min. Mouse microsomes (CD-1, 20 mg/mL, Life Technologies) (5 μL, thawed in 37° C. water bath before use) were added. The resulting reaction mixture was kept at 37° C. with gentle agitation for the duration of the experiment. At selected time points (0, 1, 5, 10, 20, 30, 60 and 120 min) aliquots (15 μL) were withdrawn from the plate and quenched upon addition to cold methanol (60 μL), containing an internal standard (5 μM) in a separate 96-well polypropylene plate. At the completion of the final time-point, the samples were centrifuged at 4,000 rpm for 5 min at 4° C. The supernatant (40 μL) was withdrawn and transferred to a sample vial with insert. The samples were analyzed by LC-MS. LC-MS analysis was performed on a platform comprising a Thermo Scientific Dionex Ultimate 3000 and a Bruker amaZon SL equipped with an electrospray ionization source controlled by Bruker Hystar 3.2. Chromatographic separation was performed by injecting 5 μL of the sample onto an Agilent Eclipse Plus C18 column (2.1×50 mm, 3.5 μm) maintained at 20° C. The flow rate was maintained at 400 μL/min. The initial flow conditions were 80% solvent A (water containing 0.1% acetic acid) and 20% solvent B (methanol containing 0.1% acetic acid). Solvent B was raised to 80% over 0.50 min by 1.50 min. Solvent B was raised to 100% by 5.00 min and held there for 3.25 min. […] All analogs were detected in positive mode as [M+H]*. The percent of compound remaining at each time-point was calculated as the ratio of the integrated compound peak over the internal standard peak and standardized to the t=0 time-point. Values were plotted in GraphPad Prism 9 and fit with a one phase decay.
as §1, with “and NADPH-regenerating” for “and NADPH regenerating”, “rpm (1872 g)” for “rpm”, “[M+H]*. […]” for “[M+H]*. The percent of compound remaining at each time-point was calculated as the ratio of the integrated compound peak over the internal standard peak and standardized to the t=0 time-point. Values were plotted in GraphPad Prism 9 and fit with a one phase decay.”

HT-1080 cells [5] = experiment: Cell viability assays in HT-1080 cells, ferroptosis induced by IKE or RSL3 (Example 8); format: cell-based
Procedure: Cell culture assays were incubated at 37° C. with 5% CO2. HT-1080 cells were grown in DMEM (Corning) supplemented with 10% FBS (Life Technologies), 1% Penicillin-Streptomycin 10,000 U/mL (Gibco), and 1% MEM Non-Essential Amino Acids Solution 100× (Gibco). For cell viability assays, cells were trypsinized, counted, and seeded into 384-well white polypropylene plates at 1,000 cells/well, unless otherwise specified. After allowing cells to adhere overnight, compounds in DMSO stocks were arrayed in a 16-point dilution series prepared in a mother plate, and treated from a daughter plate, [DMSO]=0.28%. After 24 or 48 h, 50% CellTiter-Glo (Promega) 50% cell culture medium was added to each well and incubated at room temperature with shaking for 15 min. Luminescence was measured using a Victor X5 plate reader (PerkinElmer). All cell viability data were normalized to the DMSO vehicle condition. […] All 384w measurements were performed in triplicate
We first evaluated the efficacy of four pyridine analogs, TH-2-9-1, TH-2-31, TH-2-37-1, and TH-2-37-2, in suppressing ferroptosis induced by IKE and RSL3 in HT-1080 cells. […] We sought to determine whether incorporation of pyridine changed stability in mouse liver microsomes.

[6] = HT-1080, ^a 50% viability, HT-1080 cells treated with 10 μM erastin
[7] = HT-1080, ^b 50% viability, HT-1080 treated with 3 μM IKE
[8] = HT-1080, ^c 50% viability, HT-1080 treated with 0.2 μM RSL3
[9] = CD1, mouse, Mouse: CD1, read-out: Microsomal Stability t1/2
[10] = HT-1080, no footnote marker printed, inducer not stated

CCCCCCNc1cc(C(=O)OC(C)(C)C)c(C)cc1NC12CC3CC(CC(C3)C1)C2 [CFI-A9]
EC50 (HT-1080 cells [1]; [6]): 65 nM | Microsomal Stability t1/2 ([2]; Mouse: CD1): Mouse: >120 min | average % remaining after 120 minutes ([2]; Mouse: CD1): min (83.6%) Human: TBD Rat: TBD Dog Pig: TBD

CCCCCCNc1cc(C(=O)OC(C)(C)C)c(F)cc1NC12CC3CC(CC(C3)C1)C2 [CFI-A8]
EC50 (HT-1080 cells [1]; [7]): 20 nM | EC50 (HT-1080 cells [1]; [8]): 19 nM | Microsomal Stability t1/2 ([2]; Mouse: CD1): Mouse: >120 min | average % remaining after 120 minutes ([2]; Mouse: CD1): min (76.4%) Human: TBD Rat: TBD Dog: Pig: TBD

Cc1noc(-c2cnc(NC3CCCCC3)c(N)c2)n1 [TH-2-30]
EC50 (HT-1080 cells [1]; [7]): 461 nM | EC50 (HT-1080 cells [1]; [8]): 118 nM | potency compared, in words (HT-1080 cells [3]; 3 μM IKE): relatively less potent; also recorded: potency comparable to Fer-1 against IKE and RSL3 | toxicity (overall drop in viability) (HT-1080 cells [3]): appeared to be toxic

Nc1cc(-c2ncco2)ccc1NC1CCCCC1 [PHB4051, N1-cyclohexyl-4-(oxazol-2-yl)benzene-1,2-diamine]
half-life at 20 µM ([4]; CD-1, mouse, liver microsomes, pH 7.4, text, read-out: half-life in mouse liver microsomes): < 1 h | microsomal stability / half-life, in words [4]: the least stable compound | potency relative to fer-1 at suppressing ferroptosis, in words (HT-1080 cells [5]): more potent than fer-1

Cc1noc(-c2cnc(NC3CCCCC3)c(NC3CCCCC3)c2)n1 [CFI-102]
EC50 (HT-1080 cells [1]; [7]): 0.9 nM | EC50 (HT-1080 cells [1]; [8]): 0.9 nM | half-life [2, 9]: 0.5 to 1 h | potency compared, in words (HT-1080 cells [3]; 3 μM IKE): the most potent analog for both IKE an RSL3 | IC50 (HT-1080 cells [3]; 0.2 μM RSL3, read-out: IC50 against RSL3): 10 to 20 nM | IC50 (HT-1080 cells [3]; 3 μM IKE, read-out: IC50 against IKE): 10 to 20 nM | toxicity (overall drop in viability) (HT-1080 cells [3]): appeared to be toxic | concentration achieving full rescue (HT-1080 cells [3]; starting concentration 5 μM, treated 51 hours, IKE and RSL3): around 0.0001 μM

CC(C)(C)OC(=O)c1cc(NC2CCCCC2)c(NC23CC4CC(CC(C4)C2)C3)cc1Cl [AZII11, tert-butyl 4-(((3s,5s,7s)-adamantan-1-yl)amino)-2-chloro-5-(cyclohexylamino)benzoate]
microsomal stability / half-life, in words [4]: half-lives greater than two hours | potency relative to fer-1 at suppressing ferroptosis, in words (HT-1080 cells [5]): less potent than fer-1

CC(C)(C)OC(=O)c1ccc(NC2CCCCC2)c(NC23CC4CC(CC(C4)C2)C3)c1 [DL034, tert-butyl 3-(((3s,5s,7s)-adamantan-1-yl)amino)-4-(cyclohexylamino)benzoate]
microsomal stability / half-life, in words [4]: half-lives greater than two hours | potency relative to fer-1 at suppressing ferroptosis, in words (HT-1080 cells [5]): less potent than fer-1

Cc1noc(-c2ccc(NC34CC5CC(CC(C5)C3)C4)c(N)c2)n1 [CFI-4066]
EC50 (HT-1080 cells [1]; [6]): 123 nM | half-life [2, 9]: 0.503 to 0.54 h

Cc1cccc(C)c1CNc1cc(C(=O)OC(C)(C)C)ccc1NC12CC3CC(CC(C3)C1)C2 [DL047, tert-butyl 4-(((3s,5s,7s)-adamantan-1-yl)amino)-3-((2,6-dimethylbenzyl)amino)benzoate]
microsomal stability / half-life, in words [4]: half-lives greater than two hours | potency relative to fer-1 at suppressing ferroptosis, in words (HT-1080 cells [5]): less potent than fer-1

CC(C)(C)OC(=O)c1cc(NC2CCCCC2)c(NC23CC4CC(CC(C4)C2)C3)cc1F [AZIII8, tert-butyl 4-(((3s,5s,7s)-adamantan-1-yl)amino)-5-(cyclohexylamino)-2-fluorobenzoate]
microsomal stability / half-life, in words [4]: half-lives greater than two hours | potency relative to fer-1 at suppressing ferroptosis, in words (HT-1080 cells [5]): more potent than fer-1

COc1cnc(NC2CCCCC2)c(N)c1 [TH-2-5, N^2-cyclohexyl-5-methoxypyridine-2,3-diamine]
EC50 (HT-1080 cells [1]; [10]): > 350 nM | death observed with RSL3 (HT-1080 cells [3]; 0.2 μM RSL3, inhibitor range 10 μM-0 μM): No death was observed

C=C/C=C(/CN/C(=C/C(=C\C)C(=O)OCC)CNC(CC)CCC)C(=C)O (stereo not drawn) [CFI-M82]
Microsomal Stability t1/2 ([2]; Mouse: CD1): Mouse: 10 min

CC(C)(C)OC(=O)c1ccc(NC2CCCCC2)c(NC23CC4CC(CC(C4)C2)C3)c1 [CFI-L034]
EC50 (HT-1080 cells [1]; [10]): 166 nM | half-life ([2]; CD1 (mouse), mouse, human, in either mouse or human liver microsomes, read-out: T1/2): > 2 h | half-life [2, 9]: > 2 h | average % remaining after 120 minutes ([2]; Mouse: CD1): min (60.2%) Human: TBD Rat: TBD Dog: Pig: TBD
